From patent US20080280817A1, “MODIFIED AMINO ACID FOR THE INHIBITION OF PLATELET AGGREGATION” (NOVARTIS AG, priority 2002, published 2008)

Legend:
Assay type in all cases: cell-based, human
[1] = test system: platelet rich plasma (PRP); assay: ADP-induced platelet aggregation in PRP (aggregometer, optical density)
Protocol: (§1) Freshly drawn venous blood from healthy volunteers is collected into 0.1 vol. […] trisodium citrate. The donors have not taken any medication during two weeks prior to blood collection. PRP is prepared by centrifugation of the freshly drawn blood (150 g, 15 minutes at 22° C.) and the final platelet concentration is standardized at 200 000 cell/μL by dilution in autologous platelet-free plasma, prepared by centrifugation (1200 g, 10 minutes at 22° C.). The supernatant is collected. Samples of PRP are pre-incubated for 1 minute (22° C.) with varying concentrations of 5-CNAC in saline (stored at −20° C.).
(§2) In order to assess the inhibitory effect of 5-CNAC on platelet aggregation, the following studies are performed. Samples of 0.400 mL PRP containing 5-CNAC are prepared as above. To these samples is added 0.005 mL of an aggregation stimulator which is either ADP (Roche Molecular Biochemicals, Mannheim) or collagen (Horm Chemie, Munich). The final concentrations of either the ADP or collagen are as indicated in the “Results” section. Aggregation studies are performed in a Chronolog 4 channel aggregometer (type CH570VS-CH810). The aggregometer automatically calibrates the donor-dependent difference in optical density between platelet-free plasma (0% optical density) and the PRP (100% optical density) of a particular donor. The extent of aggregation is measured by expressing the maximal difference in optical density (independent of the time after the addition of the aggregation stimulator, i.e., either ADP or collagen) and normalized taking the control curves (without 5-CNAC) as an internal standard set at 100%.

[2] = test system: platelet rich plasma (PRP); assay: Collagen-stimulated platelet aggregation in PRP (aggregometer, optical density)
Protocol: as §1, §2

[3] = test system: platelet rich plasma (PRP); assay: Addition of 5-CNAC alone to PRP; platelet morphology
Protocol: as §1
In order to assess the inhibitory effect of 5-CNAC on platelet aggregation, the following studies are performed. Samples of 0.400 mL PRP containing 5-CNAC are prepared as above. To these samples is added 0.005 mL of an aggregation stimulator which is either ADP (Roche Molecular Biochemicals, Mannheim) or collagen (Horm Chemie, Munich). The final concentrations of either the ADP or collagen are as indicated in the “Results” section. […] The extent of aggregation is measured by expressing the maximal difference in optical density (independent of the time after the addition of the aggregation stimulator, i.e., either ADP or collagen) and normalized taking the control curves (without 5-CNAC) as an internal standard set at 100%.

## O=C(O)CCCCCCCNC(=O)c1cc(Cl)ccc1O [5-CNAC, N-(5-chlorosalicyloyl)-8-aminocaprylic acid]
[1]; 3 μM and 2 μM ADP compared with 5 μM ADP
  inhibition of platelet aggregation at suboptimal ADP stimulation: platelet aggregation is inhibited by lower concentrations of 5-CNAC
[1]; 5 μM ADP (maximal stimulation), PRP from 12 healthy subjects
  concentration at which inhibition of platelet aggregation becomes apparent: ≥ 2 µM
[1]; all concentrations of ADP tested
  phase of the aggregation curve in which inhibition is seen: evident in the second phase of the aggregation curve, but is not observed in the initial phase
[1]; in the presence of 5-CNAC
  change in cell shape upon ADP addition (increase in optical density): undisturbed
[1]; later part of the aggregation curve
  inhibition of secondary aggregation: dose-dependently inhibits the later part of the aggregation curve
[2]; 1 μg/mL collagen
  concentration at which inhibition is evident: ≥ 50 µM
[2]; 2 μg/mL collagen, one individual
  concentration showing platelet aggregation inhibition: about 1 mM
[2]; 2.5 μg/mL collagen, PRP of one individual, not at lower concentrations
  concentration giving some inhibition of platelet aggregation: 200 µM
[2]; 5 μg/mL collagen
  concentration at which inhibition of platelet aggregation becomes detectable: about 1 mM
[2]; 5 μg/mL collagen, 100 μM 5-CNAC
  effect on platelets (aggregation): unaffected
[2]; collagen-stimulated aggregation
  phase of the aggregation curve in which inhibition is seen: becomes apparent in the second phase of the aggregation curve
[3]; 5-CNAC alone added to PRP, no stimulator
  triggering of platelet aggregation by the compound alone: does not trigger platelet aggregation
[3]; PRP
  effect on platelet morphology (swirling of the cells): does not alter platelet morphology
